Data as given in US20130281313A1, “PROGNOSTIC AND/OR PREDICTIVE BIOMARKERS AND BIOLOGICAL APPLICATIONS THEREOF” (INSTITUT GUSTAVE ROUSSY, priority 2010, published 2013).

How the values were obtained:
Type in all cases: cell-based, human
A549 cells [1] = assay: Transcriptome studies (mRNA microarrays)
Protocol: NSCLC A549 cells were treated with 100 μM CDDP, 75 μM C2-CER or 100 μM CdCl2 for 12 h, or with 50 μM CDDP, C2-CER or CdCl2 for 24 h. Thereafter, cells were collected and lysed for RNA extraction of following established procedures {de La Motte Rouge, 2007}. mRNA expression changes were quantified on G4112A 44 k Whole Human Genome Oligo Microarrays (Agilent Technologies, Santa Clara, USA), as previously reported {Castedo, 2006}. mRNA microarrays underwent standardized post-hybridization processing, image acquisition and analysis (see below) {Castedo, 2006}.
Data from microarray experiments were analyzed with the Rosetta Resolver® System (Rosetta Biosoftware, Seattle, USA). The threshold for statistical significance of probe signals (Intensity) was set at p=10^−5. […] For each mRNA, fold change (FC) was then defined as Intensitysample/Intensitycontrol when Intensitysample>Intensitycontrol, or as—(Intensitycontrol/Intensitysample) when Intensitysample<Intensitycontrol. Ratios were calculated as Intensitysample/Intensitycontrol.

A549 cells [2] = assay: Cytofluorometric assessment of cell death (DiOC6(3)/PI co-staining)
A549 cells [3] = assay: Intracellular levels of CDDP in cell lysates; settings: 24 h, 25 μM CDDP alone or with PN and/or GSH, normalized to protein content
Protocol: (E,F) Intracellular levels of CDDP (normalized to protein content) in lysates from untransfected A549 cells (D) or A549 cells transfected with a PDXK-targeting siRNA (E), treated for 24 h with 25 μM CDDP alone or in combination with PN and/or GSH. Mean±SEM (n=6). *=p<0.05 (Studen's t test), as compared to untransfected (D) or siUNR transfected (E) cells treated with CDDP only. n.s.=non significant (Student's t test), as compared to cells treated with the same concentration of GSH (D) or to siPDXK-transfected cells treated with CDDP only (E).

A549 cells [4] = assay: Real-time measurements of cell adherence (impedance); settings: 50 μM CDDP alone or with 5 mM PN
Protocol: 5×10^3 A549 cells were seeded in standard culture conditions on 96-well plates coated with gold microelectrodes (E-plates™, Roche) and let adapt and recover growth for 40 h. Thereafter, cells were treated with 50 μM CDDP alone or in association with 5 mM PN for additional 48 h. Since plating, the adherence of cells to the plate was monitored every 15 min (as a function of plate impedance) by means of an xCELLigence™ Real-Time Cell Analyzer (RTCA, from Roche).
Cell adherence was measured in 3 parallel wells for each experimental condition.
Results are reported as mean cell index (CI) values, which constitute an indication of electrode impedance, ±SEM.

[5] = 12 h, 100 μM CDDP, 75 μM C2-CER or 100 μM CdCl2, vs untreated cells
[6] = 24 h, 50 μM CDDP, C2-CER or CdCl2, vs untreated cells

Structure (SMILES): N.N.[Cl][Pt][Cl] [CDDP, cis-diammineplatinum(II) dichloride]
- Fold change, ADAR (NM_001111) transcript (A549 cells [1]; [5]): n.s.
- Fold change, ALDH7AT (NM_001182) transcript (A549 cells [1]; [5]): n.s.
- Fold change, CD151 (NM_004357) transcript (A549 cells [1]; [5]): n.s.
- Fold change, CLIC1 (NM_001288) transcript (A549 cells [1]; [5]): n.s.
- Fold change, COMMO9 (NM_014186) transcript (A549 cells [1]; [5]): n.s.
- Fold change, COX5B (NM_001802) transcript (A549 cells [1]; [5]): n.s.
- Fold change, COX7C (NM_001867) transcript (A549 cells [1]; [5]): n.s.
- Fold change, DHRSX (NM_145177) transcript (A549 cells [1]; [5]): −1.94
- Fold change, EBP (NM_006579) transcript (A549 cells [1]; [5]): n.s.
- Fold change, EEF2 (NM_001901) transcript (A549 cells [1]; [5]): 1.36
- Fold change, FDXK (NM_003681) transcript (A549 cells [1]; [5]): −1.77
- Fold change, FN3KRP (NM_024619) transcript (A549 cells [1]; [5]): 1.33
- Fold change, HDLBP (NM_005336) transcript (A549 cells [1]; [5]): n.s.
- Fold change, HGD (NM_000187) transcript (A549 cells [1]; [5]): −1.68
- Fold change, IL6R (NM_000565) transcript (A549 cells [1]; [5]): n.s.
- Fold change, KHSRP (NM_003685) transcript (A549 cells [1]; [5]): n.s.
- Fold change, LOC389727 (NM_372092) transcript (A549 cells [1]; [5]): n.s.
- Fold change, MAT2A (NM_005911) transcript (A549 cells [1]; [5]): −1.97
- Fold change, MOL1 (NM_021960) transcript (A549 cells [1]; [5]): 2.48
- Fold change, MPP6 (NM_016447) transcript (A549 cells [1]; [5]): n.s.
- Fold change, OSTCL (NM_145303) transcript (A549 cells [1]; [5]): n.s.
- Fold change, P5MC5 (NM_002805) transcript (A549 cells [1]; [5]): n.s.
- Fold change, PLK1S1 (NM_018474) transcript (A549 cells [1]; [5]): n.s.
- Fold change, PPM1J (NM_005167) transcript (A549 cells [1]; [5]): 1.63
- Fold change, RNF26 (NM_032015) transcript (A549 cells [1]; [5]): n.s.
- Fold change, RRAD (NM_004185) transcript (A549 cells [1]; [5]): 6.59
- Fold change, SEMA3G (NM_000379) transcript (A549 cells [1]; [5]): −1.58
- Fold change, SLC22A16AS (NM_007105) transcript (A549 cells [1]; [5]): −1.36
- Fold change, SOCS6 (NM_004232) transcript (A549 cells [1]; [5]): −1.28
- Fold change, TMED1 (NM_006858) transcript (A549 cells [1]; [5]): 1.35
- Fold change, TRIP4 (NM_016213) transcript (A549 cells [1]; [5]): −1.64
- Fold change, UBE2L3 (NM_003347) transcript (A549 cells [1]; [5]): −1.76
- Fold change, UBE21 (NM_014176) transcript (A549 cells [1]; [5]): n.s.
- Fold change, W282 (NM_018029) transcript (A549 cells [1]; [5]): n.s.
- Fold change, ADAR (NM_001111) transcript (A549 cells [1]; [6]): n.s.
- Fold change, ALDH7AT (NM_001182) transcript (A549 cells [1]; [6]): 1.62
- Fold change, CD151 (NM_004357) transcript (A549 cells [1]; [6]): −2.13
- Fold change, CLIC1 (NM_001288) transcript (A549 cells [1]; [6]): n.s.
- Fold change, COMMO9 (NM_014186) transcript (A549 cells [1]; [6]): n.s.
- Fold change, COX5B (NM_001802) transcript (A549 cells [1]; [6]): n.s.
- Fold change, COX7C (NM_001867) transcript (A549 cells [1]; [6]): n.s.
- Fold change, DHRSX (NM_145177) transcript (A549 cells [1]; [6]): −5.40
- Fold change, EBP (NM_006579) transcript (A549 cells [1]; [6]): n.s.
- Fold change, EEF2 (NM_001901) transcript (A549 cells [1]; [6]): −1.31
- Fold change, FDXK (NM_003681) transcript (A549 cells [1]; [6]): −1.44
- Fold change, FN3KRP (NM_024619) transcript (A549 cells [1]; [6]): 1.25
- Fold change, HDLBP (NM_005336) transcript (A549 cells [1]; [6]): n.s.
- Fold change, HGD (NM_000187) transcript (A549 cells [1]; [6]): −1.50
- Fold change, IL6R (NM_000565) transcript (A549 cells [1]; [6]): n.s.
- Fold change, KHSRP (NM_003685) transcript (A549 cells [1]; [6]): −2.00
- Fold change, LOC389727 (NM_372092) transcript (A549 cells [1]; [6]): n.s.
- Fold change, MAT2A (NM_005911) transcript (A549 cells [1]; [6]): n.s.
- Fold change, MOL1 (NM_021960) transcript (A549 cells [1]; [6]): n.s.
- Fold change, MPP6 (NM_016447) transcript (A549 cells [1]; [6]): n.s.
- Fold change, OSTCL (NM_145303) transcript (A549 cells [1]; [6]): n.s.
- Fold change, P5MC5 (NM_002805) transcript (A549 cells [1]; [6]): n.s.
- Fold change, PLK1S1 (NM_018474) transcript (A549 cells [1]; [6]): n.s.
- Fold change, PPM1J (NM_005167) transcript (A549 cells [1]; [6]): n.s.
- Fold change, RNF26 (NM_032015) transcript (A549 cells [1]; [6]): n.s.
- Fold change, RRAD (NM_004185) transcript (A549 cells [1]; [6]): 3.75
- Fold change, SEMA3G (NM_000379) transcript (A549 cells [1]; [6]): n.s.
- Fold change, SLC22A16AS (NM_007105) transcript (A549 cells [1]; [6]): −1.34
- Fold change, SOCS6 (NM_004232) transcript (A549 cells [1]; [6]): n.s.
- Fold change, TMED1 (NM_006858) transcript (A549 cells [1]; [6]): n.s.
- Fold change, TRIP4 (NM_016213) transcript (A549 cells [1]; [6]): n.s.
- Fold change, UBE2L3 (NM_003347) transcript (A549 cells [1]; [6]): n.s.
- Fold change, UBE21 (NM_014176) transcript (A549 cells [1]; [6]): n.s.
- Fold change, W282 (NM_018029) transcript (A549 cells [1]; [6]): 1.30

Structure (SMILES): Cc1ncc(CO)c(CO)c1O [PN, pyridoxine]
- CDDP-induced cell death upon acute addition of the vitamer (DiOC6(3)/PI co-staining) (A549 cells [2]; A549 cells, 25 μM CDDP, co-treated for 48 h): exacerbated CDDP-induced cell death
- effects of PN on CDDP-induced cell death upon PDXK depletion (A549 cells [2]; siPDXK-transfected A549 cells, CDDP): lost upon PDXK depletion
- intracellular accumulation of CDDP (A549 cells [3]): significantly augmented by PN in a PDXK-dependent fashion
- CDDP-induced cell death measured as impedance caused by attached, viable cells (A549 cells [4]): exacerbated CDDP-induced cell death
